These molecules were tested against Cdk9/cyclinT1 (Homo sapiens, UniProt P50750) (assay: Cdk9/cyclinT1 IMAP Protocol (fluorescence polarization kinase assay)). Settings: Cdk9_cyclinT1_IC50, Table V; generated using one of the two Cdk9/cyclinT1 assays (IMAP or Alpha Screen), not stated which; ATP 6 uM.
Cdk9/cyclinT1, sequence (P50750 whole entry): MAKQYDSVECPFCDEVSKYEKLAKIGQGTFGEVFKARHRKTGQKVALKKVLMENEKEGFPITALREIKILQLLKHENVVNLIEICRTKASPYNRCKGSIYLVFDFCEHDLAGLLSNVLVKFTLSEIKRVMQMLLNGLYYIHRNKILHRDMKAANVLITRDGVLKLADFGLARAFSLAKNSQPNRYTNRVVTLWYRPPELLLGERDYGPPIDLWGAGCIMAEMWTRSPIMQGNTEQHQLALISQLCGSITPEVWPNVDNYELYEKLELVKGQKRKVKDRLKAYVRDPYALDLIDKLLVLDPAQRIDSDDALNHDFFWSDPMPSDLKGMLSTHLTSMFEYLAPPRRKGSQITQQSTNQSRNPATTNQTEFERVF
Cdk9/cyclinT1, sequence (O60563 whole entry partner): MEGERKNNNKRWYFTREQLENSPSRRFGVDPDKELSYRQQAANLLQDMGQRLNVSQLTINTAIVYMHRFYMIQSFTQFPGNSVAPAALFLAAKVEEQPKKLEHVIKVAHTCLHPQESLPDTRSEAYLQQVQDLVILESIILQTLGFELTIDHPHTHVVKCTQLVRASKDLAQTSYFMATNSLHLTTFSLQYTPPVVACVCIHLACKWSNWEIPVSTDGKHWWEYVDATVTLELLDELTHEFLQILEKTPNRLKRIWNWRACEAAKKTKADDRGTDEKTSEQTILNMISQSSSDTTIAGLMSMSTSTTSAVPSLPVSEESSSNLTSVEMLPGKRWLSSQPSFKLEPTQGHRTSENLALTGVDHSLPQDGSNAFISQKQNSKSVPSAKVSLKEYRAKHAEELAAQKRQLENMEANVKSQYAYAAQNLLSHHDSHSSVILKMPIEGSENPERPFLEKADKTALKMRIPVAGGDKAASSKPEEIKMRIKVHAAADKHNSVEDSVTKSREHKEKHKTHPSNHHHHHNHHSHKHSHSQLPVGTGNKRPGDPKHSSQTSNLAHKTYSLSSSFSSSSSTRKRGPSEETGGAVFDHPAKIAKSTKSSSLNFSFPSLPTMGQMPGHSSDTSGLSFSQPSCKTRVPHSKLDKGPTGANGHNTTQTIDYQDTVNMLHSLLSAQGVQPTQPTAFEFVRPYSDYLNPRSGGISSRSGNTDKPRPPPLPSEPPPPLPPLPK

SMILES | IC50
C[C@H]1CC[C@H](C(=O)Nc2cc(-c3ccc(F)c(NCC4CCOCC4)n3)c(Cl)cn2)CN1 (single isomer, unassigned) [Example 190] | 3 nM
C[C@@H]1CC[C@@H](C(=O)Nc2cc(-c3cccc(NC[C@@H]4CCOC(C)(C)C4)n3)ccn2)CN1 (mixture of isomers) [Example 226, (3R,6R)-/(3S,6S)-6-Methyl-piperidine-3-carboxylic acid {6-[((R)-2,2-dimethyl-tetrahydro-pyran-4-ylmethyl)-amino]-[2,4′]bipyridinyl-2′-yl}-amide] | 1 nM
[2H]C([2H])(Nc1cccc(-c2cc(NC(=O)[C@H]3CNCCO3)ncc2Cl)n1)C1CCOCC1 [Example 180, (R)-Morpholine-2-carboxylic acid {5′-chloro-6-[(tetrahydro-pyran-4-yl(dideuteromethyl))-amino]-[2,4′]bipyridinyl-2′-yl}-amide] | 20 nM
CC(C)S(=O)(=O)N1CCC[C@H](C(=O)Nc2cc(-c3nc(NCC4CCOCC4)ccc3Cl)c(Cl)cn2)C1 [Example 112, (S)-1-(Propane-2-sulfonyl)-piperidine-3-carboxylic acid {3,5′-dichloro-6-[(tetrahydro-pyran-4-ylmethyl)-amino]-[2,4′]bipyridinyl-2′-yl}-amide] | < 8 nM
CC[C@@H]1CC[C@@H](C(=O)Nc2cc(-c3cccc(NCC4CCOCC4)n3)ccn2)CN1 (racemic) [Example 230, (3R,6R)-/(3S,6S)-6-Ethyl-piperidine-3-carboxylic acid {6-[(tetrahydro-pyran-4-ylmethyl)-amino]-[2,4′]bipyridinyl-2′-yl}-amide] | 2 nM
O=C(Nc1cc(-c2nc(NCC3CCOCC3)ccc2Cl)c(Cl)cn1)[C@H]1CNCCO1 [Example 101, (R)-Morpholine-2-carboxylic acid {3,5′-dichloro-6-[(tetrahydro-pyran-4-ylmethyl)-amino]-[2,4′]bipyridinyl-2′-yl}-amide] | 8 nM
O=C(Nc1cc(-c2nc(NCC3CCOCC3)ccc2F)c(Cl)cn1)C1CNCCOC1 (centres unmarked) [Example 204, [1,4]Oxazepane-6-carboxylic acid {5′-chloro-3-fluoro-6-[(tetrahydro-pyran-4-ylmethyl)-amino]-[2,4′]bipyridinyl-2′-yl}-amide] | 1 nM
COC[C@@H]1CC[C@@H](C(=O)Nc2cc(-c3cccc(NCC4CCOCC4)n3)c(Cl)cn2)CN1 (single isomer, unassigned) [Example 235] | 2 nM
O=C(Nc1cc(-c2nc(NCC3CCOCC3)ccc2F)c(Cl)cn1)C1CNCCOC1 (single isomer, unassigned) [Example 223] | 4 nM
COC(=O)N1CCC[C@H](C(=O)Nc2cc(-c3nc(N[C@@H](C)C4CCOCC4)ccc3Cl)c(Cl)cn2)C1 [Example 154, (S)-3-{3,5′-Dichloro-6-[(S)-1-(tetrahydro-pyran-4-yl)-ethylamino]-[2,4′]bipyridinyl-2′-ylcarbamoyl}-piperidine-1-carboxylic acid methyl ester] | 15 nM
C[C@@H]1CC[C@@H](C(=O)Nc2cc(-c3cccc(NC[C@H]4CCOC(C)(C)C4)n3)ccn2)CN1 (mixture of isomers) [Example 228, (3R,6R)-/(3S,6S)-6-Methyl-piperidine-3-carboxylic acid {6-[((S)-2,2-dimethyl-tetrahydro-pyran-4-ylmethyl)-amino]-[2,4′]bipyridinyl-2′-yl}-amide] | 2 nM

Other lines, results leading:

IC50 | SMILES
17 nM | O=C(Nc1cc(-c2cccc(NCc3cccc(F)c3)n2)c(Cl)cn1)[C@H]1CCCNC1 [Example 4, (S)-Piperidine-3-carboxylic acid [5′-chloro-6-(3-fluoro-benzylamino)-[2,4′]bipyridinyl-2′-yl]-amide]
55 nM | O=C(Nc1cc(-c2cccc(NCC3CCOCC3)n2)c(Cl)cn1)[C@@H]1CNC[C@H](C(F)(F)F)C1 (single isomer, unassigned) [Example 183]
1 nM | CC1(C)C[C@H](CNc2cccc(-c3cc(NC(=O)[C@@H]4CCCNC4)ncc3Cl)n2)CCO1 (single isomer, unassigned) [Example 115]
2 nM | CO[C@@H]1CNC[C@H](C(=O)Nc2cc(-c3cccc(NCC4CCOCC4)n3)c(Cl)cn2)C1 (single isomer, unassigned) [Example 211]
1 nM | CC1(C)COCC(CNc2cccc(-c3cc(NC(=O)[C@@H]4CCCNC4)ncc3Cl)n2)O1 (stereo partly drawn) [Example 219, (R)-Piperidine-3-carboxylic acid {5′-chloro-6-[(6,6-dimethyl-[1,4]dioxan-2-ylmethyl)-amino]-[2,4′]bipyridinyl-2′-yl}-amide]
116 nM | O=C(Nc1cc(-c2cccc(NCC3CCOCC3)n2)c(Cl)cn1)[C@@H]1CCCN1 [Example 58, (S)-Pyrrolidine-2-carboxylic acid {5′-chloro-6-[(tetrahydro-pyran-4-ylmethyl)-amino]-[2,4′]bipyridinyl-2′-yl}-amide]
46 nM | C[C@H](O)CNc1cccc(-c2cc(NC(=O)[C@@H]3CCCNC3)ncc2Cl)n1 [Example 31, (R)-Piperidine-3-carboxylic acid [5′-chloro-6-((S)-2-hydroxy-propylamino)-[2,4′]bipyridinyl-2′-yl]-amide]
1 nM | C[C@@H]1CC[C@@H](C(=O)Nc2cc(-c3cccc(NC[C@@H]4CCOC(C)(C)C4)n3)c(Cl)cn2)CN1 (mixture of isomers) [Example 225, (3R,6R)-/(3S,6S)-6-Methyl-piperidine-3-carboxylic acid {5′-chloro-6-[((R)-2,2-dimethyl-tetrahydro-pyran-4-ylmethyl)-amino]-[2,4′]bipyridinyl-2′-yl}-amide]
1 nM | C[C@@H]1CC[C@@H](C(=O)Nc2cc(-c3cccc(NC[C@H]4CCOC(C)(C)C4)n3)c(Cl)cn2)CN1 (single isomer, unassigned) [Example 244]
811 nM | CCN1CCCC(C(=O)Nc2cc(-c3cccc(NCC4CCOCC4)n3)c(Cl)cn2)C1 (single isomer, unassigned) [Example 14]
1 nM | CC1(C)CO[C@H](CNc2cccc(-c3cc(NC(=O)[C@@H]4CCCNC4)ncc3Cl)n2)CO1 (single isomer, unassigned) [Example 232]
1 nM | COC[C@@H]1C[C@@H](C(=O)Nc2cc(-c3cccc(NCC4(C)CCOCC4)n3)c(Cl)cn2)CN1 [Example 239, (3R,5S)-5-Methoxymethyl-pyrrolidine-3-carboxylic acid {5′-chloro-6-[(4-methyl-tetrahydro-pyran-4-ylmethyl)-amino]-[2,4′]bipyridinyl-2′-yl}-amide]
4 nM | O=C(Nc1cc(-c2cccc(NCC3CCOCC3)n2)c(Cl)cn1)[C@H]1CNC[C@@H](C(F)(F)F)C1 (single isomer, unassigned) [Example 182]

Same assay, conditions: Cdk9_cyclinT1_IC50, generated using one of the two Cdk9/cyclinT1 assays (IMAP or Alpha Screen), not specified per value; ATP 6 uM

SMILES | IC50
CC(C)C(=O)Nc1cc(-c2cc(NCC3CCOCC3)cnc2Cl)c(Cl)cn1 [Example 313, N-{2,5′-Dichloro-5-[(tetrahydro-pyran-4-ylmethyl)-amino]-[3,4′]bipyridinyl-2′-yl}-isobutyramide] | < 8 nM
O=C(Nc1cc(-c2cc(NCC3CCOCC3)cnc2Cl)c(Cl)cn1)[C@@H]1CCCNC1 [Example 312, (R)-Piperidine-3-carboxylic acid {2,5′-dichloro-5-[(tetrahydro-pyran-4-ylmethyl)-amino]-[3,4′]bipyridinyl-2′-yl}-amide] | < 8 nM
